Read-outs that look alike come from different tables or passages of the source. Some results are limits rather than exact numbers.

A short description of data set [1]: Cell viability assay (crystal violet). Conditions: African green monkey.
For a further data set, the system named is SARS-CoV-2. Description: Plaque reduction / time-of-addition assay. The data set is classed as cell-based. Conditions: for IC50: Vero E6, MOI 0.1, plaque assay.
The test system of a further data set is SARS-CoV. Conditions: cited from earlier work.
Where [2] appears, read: Severe acute respiratory syndrome coronavirus 2, Vero C1008, read-out: IC50 (µM) 1 h, compound added 1 h postinfection.
Setting [3] is: Severe acute respiratory syndrome coronavirus 2, Vero C1008, compound added at the time of infection (0 h), read-out: IC50 (µM) 0 h.

On to `O=C1c2cc(N3CCOCC3)c(Cc3ccccc3)nc2C(c2ccc(C(F)(F)F)cc2)N1CCNc1ccnc2cc(Cl)ccc12` (stereo not drawn) [19g, 2-Benzyl-6-(2-((7-chloroquinolin-4-yl)amino)ethyl)-3-morpholino-7-(4-(trifluoromethyl)phenyl)-6,7-dihydro-5H-pyrrolo[3,4-b]pyridin-5-one], for which the viability – broadly, a read-out of living cells in per cent, often relative to untreated cells – at 48 h, 10 µM in data set [1] is more than 80%. For the same molecule, the IC50 (usually the concentration that inhibits the measured activity by half) is 6.98 µM with SARS-CoV-2 (setting [2]) and 7.5 µM with SARS-CoV-2 (setting [3]).

For the molecule `O=C1c2cc(N3CCOCC3)c(Cc3ccccc3)nc2C(c2c(F)c(F)c(F)c(F)c2F)N1CCCNc1ccnc2cc(Cl)ccc12` (stereo not drawn) [19l, 2-Benzyl-6-(3-((7-chloroquinolin-4-yl)amino)propyl)-3-morpholino-7-(perfluorophenyl)-6,7-dihydro-5H-pyrrolo[3,4-b]pyridin-5-one], the IC50 in the data set with SARS-CoV-2 (setting [3]) was 7.06 µM.

Consider `O=C1c2cc(N3CCOCC3)c(Cc3ccccc3)nc2C(c2ccccc2F)N1CCNc1ccnc2cc(Cl)ccc12` (stereo not drawn) [19e, 2-Benzyl-6-(2-((7-chloroquinolin-4-yl)amino)ethyl)-7-(2-fluorophenyl)-3-morpholino-6,7-dihydro-5H-pyrrolo[3,4-b]pyridin-5-one], for which the IC50 with SARS-CoV-2 (setting [3]) turned out to be 17.1 µM.

Regarding `CCN(CC)CCCC(C)Nc1ccnc2cc(Cl)ccc12` (stereo not drawn) [Chloroquine], the IC50 in the data set with SARS-CoV is 8.8 µM.

`O=C1c2cc(N3CCOCC3)c(Cc3ccccc3)nc2C(c2cc(C(F)(F)F)cc(C(F)(F)F)c2)N1CCNc1ccnc2cc(Cl)ccc12` (stereo not drawn) [19j, 2-Benzyl-7-(3,5-bis(trifluoromethyl)phenyl)-6-(2-((7-chloroquinolin-4-yl)amino)ethyl)-3-morpholino-6,7-dihydro-5H-pyrrolo[3,4-b]pyridin-5-one]: the 50% inhibitory concentration (IC50) in the data set on SARS-CoV-2 (setting [3]) turned out to be 15 µM.

`CCN(CC)c1cc2c(nc1Cc1ccccc1)C(c1ccc(F)cc1)N(CCNc1ccnc3cc(Cl)ccc13)C2=O` (stereo not drawn) [19d, 2-Benzyl-6-(2-((7-chloroquinolin-4-yl)amino)ethyl)-3-(diethylamino)-7-(4-fluorophenyl)-6,7-dihydro-5H-pyrrolo[3,4-b]pyridin-5-one] had a viability at 48 h, 10 µM in data set [1] of more than 90%. Moreover, in the data set on SARS-CoV-2 (setting [3]), the IC50 amounted to 6.74 µM.

For the molecule `CCN(CC)c1cc2c(nc1Cc1ccccc1)C(c1ccc(C(F)(F)F)cc1)N(CCNc1ccnc3cc(Cl)ccc13)C2=O` (stereo not drawn) [19i, 2-Benzyl-6-(2-((7-chloroquinolin-4-yl)amino)ethyl)-3-(diethylamino)-7-(4-(trifluoromethyl)phenyl)-6,7-dihydro-5H-pyrrolo[3,4-b]pyridin-5-one], the viability at 48 h, 10 µM in data set [1] was more than 90%. Besides, the IC50 came to 5.29 µM in the data set with SARS-CoV-2 (setting [2]) and 24 µM in the data set with SARS-CoV-2 (setting [3]). In addition, the plaque reduction entry in the data set on SARS-CoV-2 (compound added 1 h postinfection) is “approximately one logarithmic unit”.

Turning to `O=C1c2cc(N3CCOCC3)c(Cc3ccccc3)nc2C(c2ccccc2F)N1CCCNc1ccnc2cc(Cl)ccc12` (stereo not drawn) [19f, 2-Benzyl-6-(3-((7-chloroquinolin-4-yl)amino)propyl)-7-(2-fluorophenyl)-3-morpholino-6,7-dihydro-5H-pyrrolo[3,4-b]pyridin-5-one], the viability at 48 h, 10 µM in data set [1] was more than 80%. The IC50 with SARS-CoV-2 (setting [3]) was 9.23 µM.

The values above are taken from publication PMC12347832, “Multi-Component Synthesis of New Fluorinated-Pyrrolo[3,4-b]pyridin-5-ones Containing the 4-Amino-7-chloroquinoline Moiety and In Vitro–In Silico Studies Against Human SARS-CoV-2” (International Journal of Molecular Sciences, 2025).
